Data set [1] addresses T1, human p38 MAP kinase (Homo sapiens, UniProt Q16539).
T1 construct: made in house; host or cells: Sf-21 insect cells, baculovirus (BAC-HP38 co-infected with BAC-caMKK3)
Kind of data set: Measurement of the p38 MAP kinase inhibitory activity, 32P uptake into Myelin Basic Protein (Reference Example F 2). The class given is biochemical. The settings on record: active form p38 MAP kinase, 30° C. 60 minutes, read-out: IC50 (p38 MAP kinase inhibitory activity, uptake of 32P into acid insoluble fraction). The procedure:
The genetic manipulations described below were according to the methods described in the book (Maniatis et al., Molecular Cloning, Cold Spring Harbor Laboratory, 1989) or a method described in the protocol attached to the reagent.
(1) Cloning of Human p38 MAP Kinase Gene and Preparation of Recombinant Baculovirus
Cloning of human p38 MAP kinase gene was performed by a PCR method using a primer set P38 U: 5′-[…]-3′ [SEQ ID NO:9] and PAG-L: 5′-[…]-3′ [SEQ ID NO:10] made by reference to the base sequence of p38 MAP kinase gene reported by Han et al. (Science 265 (5173), 808 811 (1994)) and employing kidney cDNA (Toyobo, QUICK-Clone cDNA) as a template.
A PCR reaction was performed by a Hot Start method using AmpliWax PCR Gem 100 (Takara Shuzo). As the lower mixed solution, 2 μL 10×LA PCR Buffer, 3 μL 2.5 mM dNTP solution, each 2.5 μL of 12.5 μM primer solution, and 10 μL sterile distilled water were mixed. As the upper mixed solution, 1 μL human cardiac cDNA (1 ng/mL) as a template, 3 μL 10×LA PCR Buffer, 1 μL 2.5 mM dNTP solution, 0.5 μL TaKaRa LA Taq DNA polymerase (Takara Shuzo), and 24.5 μL sterile distilled water were mixed. One AmpliWax PCR Gem 100 (Takara Shuzo) was added to the prepared lower mixed solution to treat at 70° C. for 5 minutes and for 5 minutes in an ice and, thereafter, the upper mixed solution was added to prepare a reaction solution for PCR. A tube containing the reaction solution was set at a thermal cycler (Perkin Elmer), which was treated at 95° C. for 2 minutes. Further, after repeating 35 times a cycle of 15 seconds at 95° C. and 2 minutes at 68° C., treatment was performed at 72° C. for 8 minutes. The resulting PCR product was subjected to agarose gel (1%) electrophoresis, 1.1 kb DNA fragment containing p38 MAP kinase gene was recovered from the gel and, thereafter, which was inserted into pT7Blue-T vector (Takara Shuzo) to make the plasmid pHP38.
The 4.8 kb XhoI-KpnI fragment of the plasmid pFASTBAC1 (CIBCOBRL) and the 1.1 kb XhoI-Kpn fragment of the above plasmid pHP38 were ligated to make the plasmid pFBHP38.
The plasmid pFBHP38 and BAC-TO-BAC Baculovirus Expression System (GIBCOBRL) were used to prepare the recombinant Baculovirus virusstock BAC-HP38.
(2) Cloning of Human MKK3 Gene and Preparation of Recombinant Baculovirus
Cloning of human MKK3 gene was performed by a PCR method using a primer set MKK-U: 5′-[…]-3′ [SEQ ID NO:11] and MKK-L: 5′-[…]-3′ [SEQ ID NO:12] made by reference to the base sequence of MKK3 gene reported by Derijard, B. et al., Science 267 (5198), 682 685 (1995) and using kidney cDNA (Toyobo, QUICK-Clone cDNA).
A PCR reaction was performed by a Hot Start method using AmpliWax PCR Gem 100 (Takara Shuzo). As the lower mixed solution, 2 μL 10×LA PCR Buffer, 3 μL 2.5 mM dNTP solution, each 2.5 μL of 12.5 μM primer solution, and 10 μL sterile distilled water were mixed. As the upper mixed solution, 1 μL human kidney cDNA (1 ng/mL), 3 μL 10×LA PCR Buffer, 1 μL 2.5 mM dNTP solution, 0.5 μL TaKaRa LA taq DNA polymerase (Takara Shuzo) and 24.5 μL sterile distilled water were mixed. One AmpliWax PCR Gem 100 (Takara Shuzo) was added to the prepared lower mixed solution to treat at 70° C. for 5 minutes and for 5 minutes in ice and, thereafter, the upper mixed solution was added to prepare a reaction solution for PCR. A tube containing the reaction solution was set at a thermal cycler (Perkin Elmer), which was treated at 95° C. for 2 minutes. Further, after repeating 35 times a cycle of 15 seconds at 95° C. and 2 minutes at 68° C., treatment was performed at 72° C. for 8 minutes. The resulting PCR product was subjected to agarose gel (1%) electrophoresis, 1.0 kb DNA fragment containing MKK3 gene was recovered from the gel and, thereafter, which was inserted into pT7Blue-T vector (Takara Shuzo) to make the plasmid pHMKK3. […]

Data set [2] has as its target CYP3A4 (Homo sapiens, UniProt P08684). The data set is described as follows: Measurement of CYP3A4 inhibitory activity (testosterone 6β-hydroxylation), Example 3. Format: in vitro ADME. The settings on record: CYP3A4 enzyme preparation with control microsomes, pH 7.4, probe testosterone (100 μM; 6β-hydroxylation), CYP3A4, test substance 10 μM, 100 μM testosterone, 37° C. 30 min, read-out: inhibitory rate (%) at 10 μM. The procedure: 10 pmol/mL CYP3A4, 100 μM testosterone, 1/10 volume of the reaction mixture of NADPH generating system and test substance (10 μM) were added to a 50 mM phosphate buffer (pH 7.4) and control microsome was added to adjust the final concentration of protein to 1.0 mg/mL. The reaction mixture was prepared and reacted at 37° C. for 30 min. (amount of total reaction solution 100 μL). The reaction was quenched by the addition of 100 μL of acetonitrile. After stirring, 100 μL of distilled water was added and the mixture was further stirred. A supernatant obtained by centrifugation (15000 rpm) for 10 min. was injected to HPLC by 80 μL and concentration of 6 β-hydroxytestosterone produced by the reaction was measured.
For preparation of the NADPH generating system, 1 volume of 50 mM NADP (β-nicotinamide adenine dinucleotide oxidized type), 1 volume of 0.5 M glucose-6 phosphate, 5 volumes of 0.1 M magnesium chloride, 1 volume of 150 unit/mL glucose-6-phosphate […] and 2 volumes of distilled water were mixed.

By IC50 is commonly meant the concentration that inhibits the measured activity by half. By melting point is commonly meant the temperature, or range, at which the solid turns liquid.

Bounds are passed on as bounds.

Chain of CYP3A4 (P08684 whole entry): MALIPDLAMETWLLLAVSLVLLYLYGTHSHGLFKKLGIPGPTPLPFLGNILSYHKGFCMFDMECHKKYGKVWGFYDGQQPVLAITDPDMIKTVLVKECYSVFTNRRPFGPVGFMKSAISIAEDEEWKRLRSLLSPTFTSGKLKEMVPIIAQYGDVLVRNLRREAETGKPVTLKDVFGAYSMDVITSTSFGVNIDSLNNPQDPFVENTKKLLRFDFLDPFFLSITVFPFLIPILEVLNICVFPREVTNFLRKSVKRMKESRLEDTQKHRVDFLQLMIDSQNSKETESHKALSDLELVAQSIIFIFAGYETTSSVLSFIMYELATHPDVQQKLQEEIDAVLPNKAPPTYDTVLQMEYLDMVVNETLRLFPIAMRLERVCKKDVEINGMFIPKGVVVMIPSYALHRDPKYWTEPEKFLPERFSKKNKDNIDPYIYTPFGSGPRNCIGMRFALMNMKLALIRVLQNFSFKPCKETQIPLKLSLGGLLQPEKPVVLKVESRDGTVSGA
T1 sequence (Q16539 whole entry): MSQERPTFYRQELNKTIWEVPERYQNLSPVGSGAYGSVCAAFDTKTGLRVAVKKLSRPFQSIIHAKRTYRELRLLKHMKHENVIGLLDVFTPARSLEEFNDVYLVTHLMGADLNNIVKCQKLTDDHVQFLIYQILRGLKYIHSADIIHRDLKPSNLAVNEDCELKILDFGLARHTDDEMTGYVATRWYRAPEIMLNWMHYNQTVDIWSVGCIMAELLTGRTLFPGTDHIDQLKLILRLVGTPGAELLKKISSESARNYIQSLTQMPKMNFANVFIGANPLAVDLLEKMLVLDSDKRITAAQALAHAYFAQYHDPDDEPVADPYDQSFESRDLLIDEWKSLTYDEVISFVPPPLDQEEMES

As for `Cc1cc(C)cc(-c2nc(N)sc2-c2ccnc(OCc3ccccc3)c2)c1` [D 1, [4-(3,5-dimethylphenyl)-5-(2-phenylmethyloxy-4-pyridyl)-1,3-thiazol-2-yl]amine], the IC50 in data set [1] stood at 430 nM.

On to `COc1ccc(-c2nc(NC(=O)c3ccccc3)sc2-c2ccnc(NC(=O)c3ccccc3)c2)cc1` [D 2, N-[4-[2-benzoylamino-4-(4-methoxyphenyl)-1,3-thiazol-5-yl]-2-pyridyl]benzamide], for which, in data set [1], the IC50 amounted to 63 nM. On the same count and under the same terms, with `Cc1cc(C)cc(-c2nc(N)sc2-c2ccnc(NC(=O)c3ccccc3)c2)c1` [D 5, N-[4-[2-amino-4-(3,5-dimethylphenyl)-1,3-thiazol-5-yl]-2-pyridyl]benzamide] the figure was 29 nM. In the case of `CCc1nc(-c2cccc(C)c2)c(-c2ccnc(NCCCc3ccccc3)c2)s1` [D 19-4, N-[4-[2-ethyl-4-(3-methylphenyl)-1,3-thiazol-5-yl]-2-pyridyl]-N-(3-phenylpropyl)amine], the inhibition at 30 min, 10 μM in data set [2] is < 30%.

On to `CCc1nc(-c2cccc(C)c2)c(-c2ccnc(F)c2)s1` [H 11, 2-ethyl-5-(2-fluoro-4-pyridyl)-4-(3-methylphenyl)-1,3-thiazole], for which the inhibition at 30 min, 10 μM in data set [2] was < 30%. On the same count and under the same terms, next, `CCc1nc(-c2cccc(C)c2)c(-c2ccnc(C)c2)s1` [H 13, 2 ethyl-4 (3 methylphenyl)-5 (2 methyl-4 pyridyl)-1,3 thiazole]: < 30%; `CCc1nc(-c2cccc(C)c2)c(-c2ccnc(N)c2)s1` [H 22, 4-[2-ethyl-4-(3-methylphenyl)-1,3-thiazol-5-yl]-2-pyridylamine]: < 30%. For the molecule `CCc1nc(-c2cccc(C)c2)c(-c2ccnc(NC(C)=O)c2)s1` [H 29-2, N-[4-[2-ethyl-4-(3-methylphenyl)-1,3-thiazol-5-yl]-2-pyridyl]acetamide], the inhibition at 30 min, 10 μM in data set [2] is < 30%. As to `CCc1nc(-c2cccc(C)c2)c(-c2ccnc(Cl)c2)s1` [H 69, 5 (2 chloro-4 pyridyl)-2 ethyl-4 (3 methylphenyl)-1,3-thiazole], the inhibition at 30 min, 10 μM in data set [2] was < 30%.

For `Cc1cccc(-c2nc(N(C)C(=O)c3cccnc3)sc2-c2ccnc(NC3CCCC3)c2)c1` [L 65-3, N-methyl-N-[5 (2-cyclopentylamino-4 pyridyl)-4 (3 methylphenyl)-1,3 thiazol-2-yl]nicotinamide], the melting point fell in the range of 150 to 151 °C. On the same count and under the same terms, with `Cc1cccc(-c2nc(N(C)C(=O)c3cccnc3)sc2-c2ccnc(NC3CCCCC3)c2)c1` [L 65-4, N-methyl-N-[5 (2-cyclohexylamino-4 pyridyl)-4 (3 methylphenyl)-1,3 thiazol-2-yl]nicotinamide] the figure was 135 to 136 °C; with `Cc1cccc(-c2nc(N(C)C(=O)c3ccc(C)nc3)sc2-c2ccnc(NC3CCCC3)c2)c1` [L 67-2, N-[5 (2 cyclopentylamino-4-pyridyl)-4 (3 methylphenyl)-1,3 thiazol-2 yl]-N, 6-dimethylnicotinamide], 176 to 177 °C. The same measure, in the same setting: next, `Cc1nc(-c2cccc(Cl)c2)c(-c2ccnc(NC(=O)Cc3ccccc3)c2)s1` [L 68-3, N-[4 [4 (3 chlorophenyl)-2-methyl-1,3 thiazol-5 yl]-2 pyridyl]phenylacetamide]: 99 to 101 °C. Still for that read-out and setting: with `Cc1cccc(-c2nc(C)sc2-c2ccnc(NC(=O)Cc3ccccc3)c2)c1` [L 68-5, N-[4 [2 methyl-4 (3-methylphenyl)-1,3 thiazol-5 yl]-2 pyridyl]phenylacetamide] the figure was 114 to 115 °C; with `Cc1cccc(-c2ncsc2-c2ccnc(NC(=O)Cc3ccccc3)c2)c1` [L 68-6, N-[4 [4 (3 methylphenyl)-1,3 thiazol-5 yl]-2 pyridyl]phenylacetamide], 135 to 136 °C. Molecule `CCc1nc(-c2ccc(F)cc2)c(-c2ccnc(NC(=O)Cc3ccccc3)c2)s1` [L 68-7, N-[4 [2 ethyl-4 (4-fluorophenyl)-1,3 thiazol-5 yl]-2 pyridyl]phenylacetamide] had a melting point of 178 to 179 °C. Take `CCc1nc(-c2ccc(C)cc2)c(-c2ccnc(NC(=O)Cc3ccccc3)c2)s1` [L 68-8, N-[4 [2 ethyl-4 (4-methylphenyl)-1,3 thiazol-5 yl]-2 pyridyl]phenylacetamide]: the melting point was in the range of 128 to 129 °C. Same read-out and setting: with `CCc1nc(-c2ccccc2)c(-c2ccnc(NC(=O)Cc3ccccc3)c2)s1` [L 68-9, N-[4 (2 ethyl-4 phenyl-1,3-thiazol-5 yl)-2 pyridyl]phenylacetamide] the figure was 162 to 163 °C; with `CCc1nc(-c2cccc(OC)c2)c(-c2ccnc(NC(=O)Cc3ccccc3)c2)s1` [L 68-10, N-[4 [2 ethyl-4 (3-methoxyphenyl)-1,3 thiazol-5 yl]-2 pyridyl)phenylacetamide], 128 to 129 °C; with `CCc1nc(-c2cccs2)c(-c2ccnc(NC(=O)c3ccccc3)c2)s1` [L 70-4, N-[4 [2 ethyl-4 (2-thienyl)-1,3 thiazol-5 yl]-2 pyridyl]benzamide], 116 to 117 °C. On the same count and under the same terms, with `CC(=O)Nc1nc(-c2cc(C)cc(C)c2)c(-c2ccncc2)s1` [Reference Example A 23-128, N-[4-(3,5-dimethylphenyl)-5-(4-pyridyl)-1,3-thiazol-2-yl]acetamide] the figure was 284 to 286 °C; with `Cc1cc(C)cc(-c2nc(NC(=O)c3ccncc3)sc2-c2ccncc2)c1` [Reference Example A 23-200, N-[4-(3,5-dimethylphenyl)-5-(4-pyridyl)-1,3-thiazol-2-yl]isonicotinamide], 302 to 304 °C.

Values taken from patent US20050080113A1, “Medicinal compositions” (priority 2001, published 2005).
